Experimental data taken from PMC10108347, “Heterobifunctional Ligase Recruiters Enable pan-Degradation of Inhibitor of Apoptosis Proteins” (Journal of Medicinal Chemistry, 2023).
pIC50: −log10 of the molar value. Values joined by “and” are separate entries in the source; they are usually repeats but may differ in a detail not shown here. Equal values may be shown once. “Also recorded” adds a separate entry of the source. Read-outs that look alike come from different tables or passages of the source.

Columns and labels:
NCI-H929 = assay: CellTiter-Glo cell viability assay, NCI-H929; type: cell-based; settings: Homo sapiens
Description: (§1) As TNF-α and related signaling cascades represent crucial factors for the single-agent activity of IAP-targeting compounds,[29],[38],[39],[55] the viability inhibition of sensitive cell lines was evaluated in the presence and absence of this inflammatory stimulus. […] These effects were independent of IAP baseline levels (Figure S16), which is in agreement with the previous studies of IAP antagonists.
(§2) Cells were seeded in 384-well plates with respective treatments, and plates were incubated at 37 °C for 96 h. Viability assays were performed with or without the addition of TNF-α at 1 ng/mL. The cell viability readout was measured using the CellTiter-Glo Luminescent Cell Viability Assay (Promega, Madison, USA) and measured with a Synergy LX Multi-Mode plate reader (BioTek, Vermont, USA). All conditions were normalized to the DMSO-treated control. Data represents the mean ± SD of biological triplicates.

XIAP = XIAP (Homo sapiens, UniProt P98170); assay: Immunoblotting (western blot) quantification of XIAP levels in MM.1S cells; design: Dmax: dose or concentration left out as unconfirmed
XIAP, sequence (P98170 whole entry): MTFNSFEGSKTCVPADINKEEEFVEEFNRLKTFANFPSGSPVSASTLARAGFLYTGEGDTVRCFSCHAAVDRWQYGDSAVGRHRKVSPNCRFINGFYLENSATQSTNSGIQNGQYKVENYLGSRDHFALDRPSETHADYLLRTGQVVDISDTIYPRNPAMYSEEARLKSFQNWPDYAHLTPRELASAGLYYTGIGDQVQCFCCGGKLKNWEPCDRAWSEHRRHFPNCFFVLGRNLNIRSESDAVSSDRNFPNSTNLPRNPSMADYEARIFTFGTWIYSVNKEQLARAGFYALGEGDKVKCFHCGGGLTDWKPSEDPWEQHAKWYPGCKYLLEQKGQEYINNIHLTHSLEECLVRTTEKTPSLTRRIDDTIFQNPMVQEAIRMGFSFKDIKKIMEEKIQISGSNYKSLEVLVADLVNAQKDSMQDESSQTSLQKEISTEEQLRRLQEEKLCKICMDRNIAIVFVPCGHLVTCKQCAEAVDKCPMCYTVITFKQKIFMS
Description: (§3) To evaluate the capability of our panel of hetero-PROTACs for E3 ligase degradation, VHL19, VHL30, CRBN, cIAP1, cIAP2, and XIAP levels were quantified by western blot analyses. […] SDS-PAGE was performed, and proteins were then transferred onto PVDF membranes. Blotted membranes were blocked with 5% milk in Tris-buffered saline/Tween20 (TBST). Primary antibodies were diluted in 5% BSA in TBST, and incubations were performed overnight at 4 °C. Secondary HRP-conjugated antibodies diluted in 5% milk were incubated for 1 h at room temperature. Detection of proteins on PVDF was carried out using the WesternBright ECL HRP substrate or the WesternBright Sirius HRP substrate (Advansta, San Jose, USA) and imaged with LAS 4000× (Fujifilm). Membranes were subjected to 10 min incubation with Restore Western Blot Stripping Buffer (Thermo Fisher Scientific, Waltham, USA), followed by TBST washes. After brief re-activation with methanol, the membranes were blocked, and further probing of proteins was carried out.
(§4) Quantification of blots was performed using ImageJ software (National Institutes of Health).

DB = assay: CellTiter-Glo cell viability assay, DB; type: cell-based; settings: Homo sapiens
Description: as §1, §2

HEL = assay: CellTiter-Glo cell viability assay, HEL; type: cell-based; settings: Homo sapiens
Description: as §1, §2

cIAP1 = cIAP1 (Homo sapiens, UniProt Q13490); assay: Immunoblotting (western blot) quantification of cIAP1 levels in MM.1S cells; design: Dmax: dose or concentration left out as unconfirmed
cIAP1, sequence (Q13490 whole entry): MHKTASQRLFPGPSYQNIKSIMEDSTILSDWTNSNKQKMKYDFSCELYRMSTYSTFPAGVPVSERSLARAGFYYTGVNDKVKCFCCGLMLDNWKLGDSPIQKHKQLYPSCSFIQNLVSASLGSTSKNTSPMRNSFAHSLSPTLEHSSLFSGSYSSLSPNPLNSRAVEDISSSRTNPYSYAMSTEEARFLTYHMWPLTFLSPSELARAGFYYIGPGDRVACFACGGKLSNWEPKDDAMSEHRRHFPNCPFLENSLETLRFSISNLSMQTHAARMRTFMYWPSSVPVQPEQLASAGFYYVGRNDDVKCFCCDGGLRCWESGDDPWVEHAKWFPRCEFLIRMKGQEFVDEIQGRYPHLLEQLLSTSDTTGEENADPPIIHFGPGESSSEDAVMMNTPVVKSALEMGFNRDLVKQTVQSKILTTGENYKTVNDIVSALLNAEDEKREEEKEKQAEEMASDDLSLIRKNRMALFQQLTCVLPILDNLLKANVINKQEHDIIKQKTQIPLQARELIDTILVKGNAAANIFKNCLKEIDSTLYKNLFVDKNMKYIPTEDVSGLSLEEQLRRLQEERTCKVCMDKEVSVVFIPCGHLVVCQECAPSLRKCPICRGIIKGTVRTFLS
Description: as §3, §4

[1] = system: IAPs (cIAP1, cIAP2, XIAP); assay: Immunoblotting of IAPs in MM.1S cells, overall degradation profile, time course and washout; type: cell-based; settings: for IAP degradation profile (in words): 16 h, western blot, concentration (10 nM to 1 μM); for time to complete degradation of cIAP1, cIAP2 and XIAP: 0.1 μM, time course
Description: Next, we examined the persistence of IAP degradation in MM.1S cells after a single exposure to 1 μM of 9 and subsequent removal of the compound. […] The reliance on CRL2^VHL was assessed with a neddylation inhibitor MLN4924, which blocks the activity of CRLs (Figure S13A).

K562 = assay: CellTiter-Glo cell viability assay, K562; type: cell-based; settings: Homo sapiens
Description: as §1, §2

JJN3 = assay: CellTiter-Glo cell viability assay, JJN3; type: cell-based; settings: Homo sapiens
Description: as §1, §2

MOLM13 = assay: CellTiter-Glo cell viability assay, MOLM13; type: cell-based; settings: Homo sapiens
Description: as §1, §2

cIAP2 = cIAP2 (Homo sapiens, UniProt Q13489); assay: Immunoblotting (western blot) quantification of cIAP2 levels in MM.1S cells; design: Dmax: dose or concentration left out as unconfirmed
cIAP2, sequence (Q13489 whole entry): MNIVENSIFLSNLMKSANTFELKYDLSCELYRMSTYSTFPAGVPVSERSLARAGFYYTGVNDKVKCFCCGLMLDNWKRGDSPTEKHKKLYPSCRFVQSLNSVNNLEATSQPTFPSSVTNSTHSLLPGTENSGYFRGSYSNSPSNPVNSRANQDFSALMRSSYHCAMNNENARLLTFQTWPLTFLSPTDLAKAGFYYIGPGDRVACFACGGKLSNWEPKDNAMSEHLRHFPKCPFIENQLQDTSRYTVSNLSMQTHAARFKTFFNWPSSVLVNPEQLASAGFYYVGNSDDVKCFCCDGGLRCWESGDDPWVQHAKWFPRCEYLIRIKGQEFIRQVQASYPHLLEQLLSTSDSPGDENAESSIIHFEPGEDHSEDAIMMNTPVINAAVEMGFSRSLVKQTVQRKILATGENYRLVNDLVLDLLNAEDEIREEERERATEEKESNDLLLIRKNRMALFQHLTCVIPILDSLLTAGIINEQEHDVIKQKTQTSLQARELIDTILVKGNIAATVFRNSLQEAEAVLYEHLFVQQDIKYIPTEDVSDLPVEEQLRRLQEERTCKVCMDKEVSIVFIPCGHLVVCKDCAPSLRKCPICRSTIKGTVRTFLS

[2] = MM.1S cells, 16 h, western blot, 0.1 or 1 μM
[3] = SI csv, head prints only the cell line, no quantity or unit, values parallel Table 1/S8, read-out: DB
[4] = MM1.S, 16 h, read-out: %remaining protein XIAP, MM.1S cells, 16 h treatment at 0.1 μM, normalized to loading control and DMSO
[5] = MM1.S, 16 h, read-out: %remaining protein cIAP1, MM.1S cells, 16 h treatment at 0.1 μM, normalized to loading control and DMSO
[6] = MM1.S, 16 h, read-out: %remaining protein cIAP2, MM.1S cells, 16 h treatment at 0.1 μM, normalized to loading control and DMSO

For CN[C@@H](C)C(=O)N[C@@H](C(=O)N1CCC[C@H]1C(=O)N[C@@H]1c2ccccc2C[C@@H]1OCC#CC#CCO[C@H]1Cc2ccccc2[C@H]1NC(=O)[C@@H]1CCCN1C(=O)[C@H](NC(=O)[C@H](C)NC)C1CCCCC1)C1CCCCC1 [AZD5582, reference compound], the pIC50 (NCI-H929; SI csv, head prints only the cell line, no quantity or unit, values parallel Table 1/S8, read-out: NCI-H929) was 7.85, the “XIAP degradation (in words)” value (XIAP; [2]) was “failed to degrade XIAP; also recorded: did not influence XIAP levels even at 1 μM” and the pIC50 (DB; [3]) was 7.14. For the same compound, the pIC50 (HEL; SI csv, head prints only the cell line, no quantity or unit, values parallel Table 1/S8, read-out: HEL) was 7.19, the “cIAP1 degradation (in words)” value (cIAP1; [2]) was “substantial degradation” and the “IAP degradation profile (in words)” value [1] was “potent cIAP autodegradation”. The pIC50 (K562; SI csv, head prints only the cell line, no quantity or unit, values parallel Table 1/S8, read-out: K562) was 7.72, the pIC50 (JJN3; JJN-3, SI csv, head prints only the cell line, no quantity or unit, values parallel Table 1/S8, read-out: JJN3) was 6.70 and the pIC50 (MOLM13; MOLM-13, SI csv, head prints only the cell line, no quantity or unit, values parallel Table 1/S8, read-out: MOLM13) was 8.70. For the same compound, the “cIAP2 degradation (in words)” value (cIAP2; [2]) was “substantial degradation”.

For CN[C@@H](C)C(=O)N[C@H](C(=O)N1C[C@@H](Oc2cccc(OCCCCC(=O)N[C@H](C(=O)N3C[C@H](O)C[C@H]3C(=O)N[C@@H](C)c3ccc(-c4scnc4C)cc3)C(C)(C)C)c2)C[C@H]1C(=O)N[C@@H]1CCCc2ccccc21)C1CCCCC1 [PROTAC 9, (2S,4S)-1-((S)-2-Cyclohexyl-2-((S)-2-(methylamino)propanamido)acetyl)-4-(3-((5-(((S)-1-((2S,4R)-4-hydroxy-2-(((S)-1-(4-(4-methylthiazol-5-yl)phenyl)ethyl)carbamoyl)pyrrolidin-1-yl)-3,3-dimethyl-1-oxobutan-2-yl)amino)-5-oxopentyl)oxy)phenoxy)-N-((R)-1,2,3,4-tetrahydronaphthalen-1-yl)pyrrolidine-2-carboxamide], the pIC50 (NCI-H929; NCI-H929, MM cell line, 96 h, TNFα-challenged, read-out: IC50 cell viability NCI-H929) was 8.07, the remaining activity at 0.1 µM (XIAP; [4]) was 7% and the Dmax (XIAP; MM1.S, read-out: Dmax XIAP (maximum degradation), MM.1S cells, 16 h) was 99%. The “Dmax XIAP (maximum degradation)” value (XIAP; MM.1S cells, 16 h, at 0.1 μM) was over 99%, the DC50 (XIAP; read-out: DC50,16h XIAP, MM.1S cells, 16 h, densitometric quantification of western blots, n = 4) was 0.7 nM and the pIC50 (DB; DB, DLBCL cell line, 96 h, TNFα-challenged, read-out: IC50 cell viability DB) was 6.34. The pIC50 (DB; [3]) was 6.29, the pIC50 (HEL; HEL, AML cell line, 96 h, TNFα-challenged, read-out: IC50 cell viability HEL) was 5.93 and the remaining activity at 0.1 µM (cIAP1; [5]) was 5%. The Dmax (cIAP1; MM1.S, read-out: Dmax cIAP1 (maximum degradation), MM.1S cells, 16 h) was 99%, the “Dmax cIAP1 (maximum degradation)” value (cIAP1; MM.1S cells, 16 h, at 0.1 μM) was over 99% and the DC50 (cIAP1; read-out: DC50,16h cIAP1, MM.1S cells, 16 h, densitometric quantification of western blots, n = 4) was 2.4 nM. The “time to complete degradation of cIAP1, cIAP2 and XIAP” value [1] was at most 3 h, the “IAP degradation profile (in words)” value [1] was “induces cIAP1, cIAP2, XIAP, and VHL30 degradation in a dose-dependent manner” and the “persistence of IAP degradation after washout (in words)” value ([1]; single exposure to 1 μM for 16 h, then compound removal) was “nearly full and stable pan-degradation of IAPs up to 72 h”. For the same compound, the pIC50 (K562; K562, AML cell line, 96 h, TNFα-challenged, read-out: IC50 cell viability K562) was 6.38, the pIC50 (JJN3; JJN-3, MM cell line, 96 h, TNFα-challenged, read-out: IC50 cell viability JJN3) was 5.94 and the pIC50 (MOLM13; MOLM-13, AML cell line, 96 h, TNFα-challenged, read-out: IC50 cell viability MOLM13) was 8.68. For the same compound, the remaining activity at 0.1 µM (cIAP2; [6]) was 21%, the Dmax (cIAP2; MM1.S, read-out: Dmax cIAP2 (maximum degradation), MM.1S cells, 16 h) was 90% and the “Dmax cIAP2 (maximum degradation)” value (cIAP2; MM.1S cells, 16 h, at 0.1 μM) was over 90%. It also gave a DC50 (cIAP2; read-out: DC50,16h cIAP2, MM.1S cells, 16 h, densitometric quantification of western blots, n = 4) of 6.2 nM.

CN[C@@H](C)C(=O)N[C@H](C(=O)N1C[C@@H](Oc2cccc(OCCOCCCCCCOCCCCCCNc3cccc4c3C(=O)N(C3CCC(=O)NC3=O)C4=O)c2)C[C@H]1C(=O)N[C@@H]1CCCc2ccccc21)C1CCCCC1 (stereo partly drawn) [PROTAC 25, (2S,4S)-1-((S)-2-Cyclohexyl-2-((S)-2-(methylamino)propanamido)acetyl)-4-(3-(2-((6-((6-((2-(2,6-dioxopiperidin-3-yl)-1,3-dioxoisoindolin-4-yl)amino)hexyl)oxy)hexyl)oxy)ethoxy)phenoxy)-N-((R)-1,2,3,4-tetrahydronaphthalen-1-yl)pyrrolidine-2-carboxamide] gave a pIC50 (NCI-H929; NCI-H929, 96 h, read-out: IC50 cell viability NCI-H929) of 7.57, a remaining activity at 0.1 µM (XIAP; MM1.S, 16 h, read-out: %remaining protein XIAP) of 2% and a pIC50 (DB; DB, read-out: DB) of 6.80. The pIC50 (HEL; HEL, read-out: HEL) was 6.52, the remaining activity at 0.1 µM (cIAP1; MM1.S, 16 h, read-out: %remaining protein cIAP1) was 5% and the “time to complete degradation of cIAP1, cIAP2 and XIAP” value [1] was at most 3 h. The “IAP degradation profile (in words)” value [1] was “pronounced pan-IAP depletion and Complete cIAP1 and XIAP depletion occurred already at 10 nM and 0.1 μM concentration was needed for the complete depletion of all IAPs”, the pIC50 (K562; K562, read-out: K562) was 6.42 and the pIC50 (JJN3; JJN-3, read-out: JJN3) was 6.74. It also gave a pIC50 (MOLM13; MOLM-13, read-out: MOLM13) of 7.28 and a remaining activity at 0.1 µM (cIAP2; MM1.S, 16 h, read-out: %remaining protein cIAP2) of 8%.

For CN[C@@H](C)C(=O)N[C@H](C(=O)N1C[C@@H](Oc2cccc(OCCCCCCOCCCCCCOCCCCCCNc3cccc4c3C(=O)N(C3CCC(=O)NC3=O)C4=O)c2)C[C@H]1C(=O)N[C@@H]1CCCc2ccccc21)C1CCCCC1 (stereo partly drawn) [PROTAC 27, (2S,4S)-1-((S)-2-Cyclohexyl-2-((S)-2-(methylamino)propanamido)acetyl)-4-(3-((6-((6-((6-((2-(2,6-dioxopiperidin-3-yl)-1,3-dioxoisoindolin-4-yl)amino)hexyl)oxy)hexyl)oxy)hexyl)oxy)phenoxy)-N-((R)-1,2,3,4-tetrahydronaphthalen-1-yl)pyrrolidine-2-carboxamide], the remaining activity at 0.1 µM (XIAP; [4]) was 8%, the remaining activity at 0.1 µM (cIAP1; [5]) was 27% and the “IAP degradation profile (in words)” value [1] was “isoform-selective XIAP degradation”. It also gave a remaining activity at 0.1 µM (cIAP2; [6]) of 46%.
